ChEMBL document CHEMBL1201862, “PubChem BioAssay data set” (2004)
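Five concentrations, 48 hours, 96-well plates. GI50: concentration for 50% inhibition of growth.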 Active and inactive are the calls of the source. Rule as the data show it: active = GI50 up to about 1.1 µM and inactive = higher.

Experiments:
Test in all cases: inhibition of tumour cell growth, NCI panel, 48 h
UACC-62 = system: UACC-62
MDA-MB-435 = system: MDA-MB-435
HT-29 = system: HT-29
UACC-257 = system: UACC-257
Hs-578T = system: Hs-578T
SK-MEL-28 = system: SK-MEL-28
OVCAR-4 = system: OVCAR-4
ACHN = system: ACHN
SNB-19 = system: SNB-19
A549 = system: A549
HCT-15 = system: HCT-15
IGROV-1 = system: IGROV-1
PC-3 = system: PC-3
SF-295 = system: SF-295
SF-268 = system: SF-268
NCI/ADR-RES = system: NCI/ADR-RES
OVCAR-3 = system: OVCAR-3
NCI-H23 = system: NCI-H23
EKVX = system: EKVX
NCI-H226 = system: NCI-H226
NCI-H460 = system: NCI-H460
786-0 = system: 786-0
A498 = system: A498
SN12C = system: SN12C
SW-620 = system: SW-620
DU-145 = system: DU-145
RXF 393 = system: RXF 393
SK-MEL-5 = system: SK-MEL-5
HCC 2998 = system: HCC 2998
HOP-92 = system: HOP-92
HCT-116 = system: HCT-116
HOP-62 = system: HOP-62
COLO 205 = system: COLO 205
M14 = system: M14
CAKI-1 = system: CAKI-1
U-251 = system: U-251
MDA-N = system: MDA-N
UO-31 = system: UO-31
KM12 = system: KM12
LOX IMVI = system: LOX IMVI
OVCAR-5 = system: OVCAR-5
MDA-MB-231 = system: MDA-MB-231
OVCAR-8 = system: OVCAR-8
TK-10 = system: TK-10
SF-539 = system: SF-539
SNB-75 = system: SNB-75
SK-OV-3 = system: SK-OV-3
SK-MEL-2 = system: SK-MEL-2

Measured: GI50

COc1ccc2c(ccc3c(C(=O)NCCN(C)CCNC(=O)c4cn(C)c5c4ccc4cc(OC)ccc45)cn(C)c32)c1
inactive: UACC-62 1.84 µM | MDA-MB-435 2.38 µM | HT-29 1.4 µM | UACC-257 1.58 µM | Hs-578T 1.95 µM | SK-MEL-28 1.79 µM | OVCAR-4 1.56 µM | ACHN 1.72 µM | SNB-19 1.95 µM | A549 1.79 µM | PC-3 1.51 µM | SF-295 1.85 µM | SF-268 1.95 µM | NCI/ADR-RES 1.42 µM | OVCAR-3 1.51 µM | NCI-H23 1.32 µM | EKVX 1.3 µM | NCI-H460 1.45 µM | 786-0 1.53 µM | A498 20 µM | SN12C 1.49 µM | SW-620 2.18 µM | DU-145 1.73 µM | RXF 393 1.4 µM | SK-MEL-5 1.63 µM | HCC 2998 1.47 µM | HOP-92 2.61 µM | HCT-116 1.79 µM | HOP-62 1.44 µM | COLO 205 2.01 µM | M14 1.64 µM | CAKI-1 1.62 µM | U-251 3.16 µM | MDA-N 1.57 µM | UO-31 1.45 µM | KM12 1.66 µM | LOX IMVI 2.15 µM
1.26 µM: HCT-15
active: IGROV-1 1.02 µM | NCI-H226 0.628 µM

CCC1(c2ccc(N3C(=O)c4ccccc4C3=O)cc2)CCC(=O)NC1=O (configuration not stated)
> 10 µM: HCT-15
inactive: OVCAR-5 > 10 µM | MDA-MB-435 > 10 µM | HT-29 > 10 µM | SK-MEL-28 > 10 µM | OVCAR-4 > 10 µM | ACHN > 10 µM | SNB-19 > 10 µM | A549 > 10 µM | IGROV-1 > 10 µM | PC-3 > 10 µM | SF-295 > 10 µM | SF-268 > 10 µM | NCI/ADR-RES > 10 µM | OVCAR-3 > 10 µM | NCI-H23 > 10 µM | EKVX > 10 µM | MDA-MB-231 > 10 µM | NCI-H226 > 10 µM | OVCAR-8 > 10 µM | TK-10 > 10 µM | SF-539 > 10 µM | SN12C > 10 µM | SW-620 > 10 µM | DU-145 > 10 µM | RXF 393 > 10 µM | SK-MEL-5 > 10 µM | HOP-92 > 10 µM | HCT-116 > 10 µM | COLO 205 > 10 µM | M14 > 10 µM | CAKI-1 > 10 µM | U-251 > 10 µM | SNB-75 > 10 µM | UO-31 > 10 µM | KM12 > 10 µM

O=c1ccn([C@@H]2O[C@H](CO)[C@@H](O)[C@H]2F)c(=O)[nH]1
> 99.5 µM: HCT-15
inactive: OVCAR-5 > 100 µM | MDA-MB-435 > 100 µM | HT-29 > 100 µM | UACC-257 > 100 µM | Hs-578T > 100 µM | SK-MEL-28 > 100 µM | OVCAR-4 > 100 µM | ACHN > 100 µM | SNB-19 > 100 µM | A549 > 100 µM | SK-OV-3 > 100 µM | IGROV-1 > 100 µM | SF-295 > 100 µM | SF-268 > 100 µM | NCI/ADR-RES > 100 µM | NCI-H23 > 100 µM | MDA-MB-231 > 100 µM | NCI-H226 > 100 µM | OVCAR-8 > 100 µM | SK-MEL-2 > 100 µM | NCI-H460 88.7 µM | TK-10 > 100 µM | A498 > 100 µM | SF-539 > 100 µM | SN12C > 100 µM | DU-145 > 100 µM | HCC 2998 > 100 µM | HCT-116 > 99.8 µM | HOP-62 > 100 µM | COLO 205 > 100 µM | M14 > 100 µM | U-251 95.1 µM | MDA-N > 100 µM | SNB-75 > 100 µM | UO-31 > 100 µM
